In US20260258086A1 (priority 2021, published 2026):
Where two headings read alike, the source gives them in different places. Numbered stars: 1 amine (or outer) side, 2 acyl side, 3 side chain; on linkers, the order of the positions; unused ones are H or OH. Bridge positions count the residues as written; N and C are the ends. Square brackets hold non-standard residues; d marks the D form. Peptide text beside a SMILES is read from it. X4 = O=C([C@@H](Cc1c([*:3])[nH]c2ccc(O)cc12)N[*:1])[*:2]; X2 = O=C([C@@H](Cc1c([*:3])[nH]c2ccccc12)N[*:1])[*:2]; Ile(4R-OH,5-OH) = C[C@H]([C@H](N)C(=O)O)[C@@H](O)CO; X5 = C[C@@H](S[*:3])[C@H](N[*:1])C(=O)[*:2]; X1 = C[C@H](S[*:3])[C@H](N[*:1])C(=O)[*:2]; X3 = CS[C@H](C)[C@H](N[*:1])C(=O)[*:2]; Gly(cPent) = N[C@H](C(=O)O)C1CCCC1; Nva(3-Et) = CCC(CC)[C@H](N)C(=O)O; Hyp = O=C(O)[C@@H]1C[C@@H](O)CN1; Pen = CC(C)(S)[C@H](N)C(=O)O

How the values were obtained:
[1] = system: HEK293 cells
[2] = system: CHO cells
[3] = biological target: Pol II (Homo sapiens, UniProt P24928); test: biochemical; format: biochemical
[4] = system: HeLa cells
[5] = system: HepG2 cells
[6] = system: white mice; conditions: mouse, in vivo; cited from earlier work
[7] = biological target: calf thymus RNAP II (Bos taurus, UniProt G3MZY8); conditions: cited from earlier work
[8] = system: SK-BR-3 cells; format: cell-based; conditions: read-out: IC50, cell viability on SK-BR-3 cells

Compound	IC50 [1] [nM]	IC50 [2] [nM]	LD50 [6] [mg/kg]	other results
CC[C@H](C)[C@@H]1NC(=O)CNC(=O)[C@H]2Cc3c([nH]c4ccccc34)S[C@@H](C)[C@H](NC(=O)CNC1=O)C(=O)N[C@@H](CC(N)=O)C(=O)N1C[C@H](O)C[C@H]1C(=O)N[C@@H]([C@@H](C)[C@@H](O)CO)C(=O)N2 [Compound I(i), (2R,3S)-β-Methyl-Cys^8-Dideoxyamanitin] (cyclo(GIG[X1]N[Hyp][Ile(4R-OH,5-OH)][X2]); thioether 4-8)	240 ± 50	610 ± 170	–	–
CC[C@H](C)[C@@H]1NC(=O)CNC(=O)[C@H]2Cc3c([nH]c4ccccc34)S[C@H](C)[C@H](NC(=O)CNC1=O)C(=O)N[C@@H](CC(N)=O)C(=O)N1C[C@H](O)C[C@H]1C(=O)N[C@@H]([C@@H](C)[C@@H](O)CO)C(=O)N2 [Compound I(ii), (2R,3R)-β-Methyl-Cys^8-Dideoxyamanitin] (cyclo(GIG[X5]N[Hyp][Ile(4R-OH,5-OH)][X2]); thioether 4-8)	–	> 15000	–	Ki [3]: > 1000 nM
CC[C@H](C)[C@@H]1NC(=O)CNC(=O)[C@H]2Cc3c([nH]c4ccccc34)SC(C)(C)[C@H](NC(=O)CNC1=O)C(=O)N[C@@H](CC(N)=O)C(=O)N1C[C@H](O)C[C@H]1C(=O)N[C@@H]([C@@H](C)[C@@H](O)CO)C(=O)N2 [Compound I(iii), Pen^8-Dideoxyamanitin] (cyclo(GIG[Pen]N[Hyp][Ile(4R-OH,5-OH)][X2]); thioether 4-8)	–	2700 ± 590	–	cytotoxicity compared with α-amanitin, in words [2]: intermediately toxic
CC[C@H](C)[C@@H]1NC(=O)CNC(=O)[C@H]2Cc3c([nH]c4ccccc34)SC[C@H](NC(=O)CNC1=O)C(=O)N[C@@H](CC(N)=O)C(=O)N1C[C@H](O)C[C@H]1C(=O)N[C@@H]([C@@H](C)[C@@H](O)CO)C(=O)N2 [Compound I(iv), aza-Gly^7-Dideoxyamanitin] (cyclo(CN[Hyp][Ile(4R-OH,5-OH)][X2]GIG); thioether 1-5)	260 ± 70	170 ± 30	–	IC50 [4]: 3300 ± 390 nM; cytotoxicity, in words [4]: increased cytotoxicity; cytotoxicity, in words [1]: increased cytotoxicity; IC50 [5]: 5600 ± 780 nM
CC[C@H](C)[C@@H]1NC(=O)CNC(=O)[C@H]2Cc3c([nH]c4ccccc34)SC[C@H](NC(=O)CNC1=O)C(=O)N[C@@H](CC(N)=O)C(=O)N1C[C@H](O)C[C@H]1C(=O)N[C@@H]([C@@H](C)[C@@H](O)CO)C(=O)N2 [Compound I(ix), aza-Gly^5-Dideoxyamanitin] (cyclo(CN[Hyp][Ile(4R-OH,5-OH)][X2]GIG); thioether 1-5)	210 ± 50	1900 ± 520	–	cytotoxicity compared with α-amanitin, in words [2]: only a two-fold reduction in cytotoxicity
CS[C@H](C)[C@@H]1NC(=O)CNC(=O)[C@H]2Cc3c([nH]c4ccccc34)SC[C@H](NC(=O)CNC1=O)C(=O)N[C@@H](CC(N)=O)C(=O)N1C[C@H](O)C[C@H]1C(=O)N[C@@H]([C@@H](C)[C@@H](O)CO)C(=O)N2 [Compound I(v), Thia-Ile^6-Dideoxyamanitin] (cyclo(CN[Hyp][Ile(4R-OH,5-OH)][X2]G[X3]G); thioether 1-5)	830 ± 150	4400 ± 730	–	IC50 [4]: 16000 ± 2300 nM; Pol II / transcription inhibition, in words [3]: high Pol II inhibition; IC50 [5]: > 20000 nM
CO[C@H](C)[C@@H]1NC(=O)CNC(=O)[C@H]2Cc3c([nH]c4ccccc34)SC[C@H](NC(=O)CNC1=O)C(=O)N[C@@H](CC(N)=O)C(=O)N1C[C@H](O)C[C@H]1C(=O)N[C@@H]([C@@H](C)[C@@H](O)CO)C(=O)N2 [Compound I(vi), Oxo-Ile^6-Dideoxyamanitin] (cyclo(CN[Hyp][Ile(4R-OH,5-OH)][X2]GT(Me)G); thioether 1-5)	–	> 15000	–	cytotoxicity compared with α-amanitin, in words [2]: no observable cytotoxicity
CCC(CC)[C@@H]1NC(=O)CNC(=O)[C@H]2Cc3c([nH]c4ccccc34)SC[C@H](NC(=O)CNC1=O)C(=O)N[C@@H](CC(N)=O)C(=O)N1C[C@H](O)C[C@H]1C(=O)N[C@@H]([C@@H](C)[C@@H](O)CO)C(=O)N2 [Compound I(vii), Diethylala^6-Dideoxyamanitin] (cyclo(CN[Hyp][Ile(4R-OH,5-OH)][X2]G[Nva(3-Et)]G); thioether 1-5)	170 ± 30	380 ± 110	–	–
C[C@H]([C@@H]1NC(=O)[C@@H]2C[C@@H](O)CN2C(=O)[C@H](CC(N)=O)NC(=O)[C@@H]2CSc3[nH]c4ccccc4c3C[C@@H](NC1=O)C(=O)NCC(=O)N[C@@H](C1CCCC1)C(=O)NCC(=O)N2)[C@@H](O)CO [Compound I(viii), Cyclopentylgly^6-Dideoxyamanitin] (cyclo(CN[Hyp][Ile(4R-OH,5-OH)][X2]G[Gly(cPent)]G); thioether 1-5)	–	1700 ± 270	–	cytotoxicity compared with α-amanitin, in words [2]: considerably diminished toxicity
CCC(CC)[C@@H]1NC(=O)CNC(=O)[C@H]2Cc3c([nH]c4ccc(O)cc34)SC[C@H](NC(=O)CNC1=O)C(=O)N[C@@H](CC(N)=O)C(=O)N1C[C@H](O)C[C@H]1C(=O)N[C@@H]([C@@H](C)[C@@H](O)CO)C(=O)N2 [Compound I(xi), 5-OH Trp^4, Diethylala^6-Deoxyamanitin] (cyclo(CN[Hyp][Ile(4R-OH,5-OH)][X4]G[Nva(3-Et)]G); thioether 1-5)	80 ± 10	1200 ± 330	–	–
CCC(CC)[C@@H]1NC(=O)CNC(=O)[C@H]2Cc3c([nH]c4ccccc34)S[C@@H](C)[C@H](NC(=O)CNC1=O)C(=O)N[C@@H](CC(N)=O)C(=O)N1C[C@H](O)C[C@H]1C(=O)N[C@@H]([C@@H](C)[C@@H](O)CO)C(=O)N2 [Compound I(xii), Diethylala^6, (2R,3S)-β-Methyl-Cys^8-Dideoxyamanitin] (cyclo(G[Nva(3-Et)]G[X1]N[Hyp][Ile(4R-OH,5-OH)][X2]); thioether 4-8)	110 ± 30	290 ± 70	–	IC50 [4]: 2400 ± 300 nM; cytotoxicity, in words [4]: increased cytotoxicity; cytotoxicity, in words [1]: increased cytotoxicity; toxicity relative to α-amanitin (times / -fold as toxic) [1]: 5; toxicity relative to α-amanitin (times / -fold as toxic) [2]: 2; IC50 [5]: 5700 ± 1100 nM
CCC(CC)[C@@H]1NC(=O)CNC(=O)[C@H]2Cc3c([nH]c4ccc(O)cc34)S[C@@H](C)[C@H](NC(=O)CNC1=O)C(=O)N[C@@H](CC(N)=O)C(=O)N1C[C@H](O)C[C@H]1C(=O)N[C@@H]([C@@H](C)[C@@H](O)CO)C(=O)N2 [Compound I(xiii), 5-OH Trp^4, Diethylala^6, (2R,3S)-β-Methyl-Cys^8-Deoxyamanitin] (cyclo(G[Nva(3-Et)]G[X1]N[Hyp][Ile(4R-OH,5-OH)][X4]); thioether 4-8)	240 ± 50	1170 ± 370	–	–
CC[C@H](C)[C@@H]1NC(=O)CNC(=O)[C@@H]2Cc3c([nH]c4ccccc34)[S+]([O-])C[C@H](NC(=O)CNC1=O)C(=O)N[C@@H](CC(=O)O)C(=O)N1C[C@H](O)C[C@H]1C(=O)N[C@@H]([C@@H](C)[C@@H](O)CO)C(=O)N2 (stereo partly shown) [amanin]	–	–	0.3	Ki [7]: 5 nM
CC[C@H](C)[C@@H]1NC(=O)CNC(=O)[C@@H]2Cc3c([nH]c4ccccc34)[S+]([O-])C[C@H](NC(=O)CNC1=O)C(=O)N[C@@H](CC(N)=O)C(=O)N1C[C@H](O)C[C@H]1C(=O)N[C@@H]([C@@H](C)[C@@H](O)CO)C(=O)N2 (stereo partly shown) [amaninamide]	–	–	20	Ki [7]: 5 nM
CC[C@H](C)[C@@H]1NC(=O)CNC(=O)[C@@H]2Cc3c([nH]c4cc(O)ccc34)[S+]([O-])C[C@H](NC(=O)CNC1=O)C(=O)N[C@@H](CC(N)=O)C(=O)N1C[C@H](O)C[C@H]1C(=O)N[C@@H]([C@@H](C)CC)C(=O)N2 (stereo partly shown) [amanullin]	–	–	>20	Ki [7]: 10 nM
CC[C@H](C)[C@@H]1NC(=O)CNC(=O)[C@@H]2Cc3c([nH]c4cc(O)ccc34)[S+]([O-])C[C@H](NC(=O)CNC1=O)C(=O)N[C@@H](CC(=O)O)C(=O)N1CCC[C@H]1C(=O)N[C@@H]([C@@H](C)CC)C(=O)N2 (stereo partly shown) [proamanullin]	–	–	>20	–
Herceptin	–	–	–	IC50 [8]: > 1000 nM
amanullinic acid	–	–	>20	–
β-amanitin	–	–	0.5	Ki ([7]; read-out: Ki): 2.5 nM
γ-amanitin	–	–	0.2	Ki ([7]; read-out: Ki): 5 nM
ε-amanitin	–	–	0.3 to 0.6	–
